The target in the experiment is canine TRPM8 (Canis lupus familiaris, UniProt Q1A7N1). The experiment can be described thus: In Vitro Canine TRPM8 Functional Assay (Ca2+ fluorescence, icilin activation). The experiment is classed as cell-based. Particulars: for IC50: read-out: IC50; for inhibition at 0.2 µM: read-out: % Inh @ 0.2; for inhibition at 0.5 µM: compound at 0.5 μM, read-out: % Inh @ 0.5. The essentials: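 Canine TRPM8 stably expressed in HEK293; compound added 5 min before icilin challenge (~80% max response), with fluorescent Ca2+ signal tracked throughout.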

Setting [1] is: HEK293 cells stably expressing canine TRPM8, icilin activation, eight-point dose-response.
Setting [2] is: compound at 0.2 μM, canine TRPM8, icilin activation.
The mark [3] stands for this setting: canine TRPM8, icilin activation.

Like-named read-outs stand apart in the source and are kept apart here.

Chain of canine TRPM8 (Q1A7N1 1-1104): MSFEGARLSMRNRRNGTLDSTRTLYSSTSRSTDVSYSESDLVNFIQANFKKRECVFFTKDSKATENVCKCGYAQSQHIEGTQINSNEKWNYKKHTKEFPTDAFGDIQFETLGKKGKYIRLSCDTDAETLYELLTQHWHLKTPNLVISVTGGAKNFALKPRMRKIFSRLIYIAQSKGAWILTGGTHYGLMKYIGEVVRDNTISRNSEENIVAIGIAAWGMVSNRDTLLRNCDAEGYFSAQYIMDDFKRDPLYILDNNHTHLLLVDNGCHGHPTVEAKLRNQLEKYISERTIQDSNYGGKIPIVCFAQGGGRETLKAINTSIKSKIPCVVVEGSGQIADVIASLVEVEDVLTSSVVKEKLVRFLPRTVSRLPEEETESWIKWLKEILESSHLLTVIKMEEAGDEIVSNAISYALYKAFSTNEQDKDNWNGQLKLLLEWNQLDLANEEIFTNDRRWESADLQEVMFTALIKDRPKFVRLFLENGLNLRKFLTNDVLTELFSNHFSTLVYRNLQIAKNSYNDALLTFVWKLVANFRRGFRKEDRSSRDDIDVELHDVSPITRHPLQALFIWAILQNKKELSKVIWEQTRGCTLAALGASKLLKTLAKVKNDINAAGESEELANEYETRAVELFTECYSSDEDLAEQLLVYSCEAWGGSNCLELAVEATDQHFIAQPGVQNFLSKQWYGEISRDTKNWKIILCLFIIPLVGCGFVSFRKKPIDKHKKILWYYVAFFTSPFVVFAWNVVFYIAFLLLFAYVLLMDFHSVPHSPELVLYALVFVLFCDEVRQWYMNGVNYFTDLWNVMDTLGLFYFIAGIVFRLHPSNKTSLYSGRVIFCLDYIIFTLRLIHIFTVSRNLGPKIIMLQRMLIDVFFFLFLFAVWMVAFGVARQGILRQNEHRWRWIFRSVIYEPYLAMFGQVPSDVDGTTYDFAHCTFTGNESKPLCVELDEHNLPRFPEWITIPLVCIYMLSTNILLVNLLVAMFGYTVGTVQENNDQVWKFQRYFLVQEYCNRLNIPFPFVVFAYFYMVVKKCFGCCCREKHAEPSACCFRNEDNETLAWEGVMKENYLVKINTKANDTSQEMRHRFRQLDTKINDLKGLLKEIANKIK

Turning to `CCS(=O)(=O)N(Cc1ccc(F)c(F)c1)c1sc2ccccc2c1C=O` [Compound 212, N-(3,4-Difluoro-benzyl)-N-(3-formyl-benzo[b]thiophen-2-yl)-ethanesulfonamide], the IC50 (in general, the concentration that inhibits the measured activity by half) under setting [1] came to 11.4 nM. The inhibition at 0.2 µM under setting [2] came to 101%.

Take `CCS(=O)(=O)N(CC1CC1)c1sc2ccccc2c1Br` [Compound 262, N-(3-Bromo-benzo[b]thiophen-2-yl)-N-(cyclopropylmethyl)-ethanesulfonamide]: the IC50 under setting [1] worked out at 67 nM. Also, under setting [2], the inhibition at 0.2 µM came to 94%.

Consider `COC(=O)c1ccc(S(=O)(=O)N(Cc2ccc(F)c(C(F)(F)F)c2)c2sc3ccccc3c2C)o1` [Compound 327, N-(3-Methyl-benzo[b]thiophen-2-yl)-N-(4-fluoro-3-trifluoromethyl-benzyl)-5-carbomethoxy-furan-2-yl-sulfonamide], for which the IC50 under setting [1] amounted to 37 nM. The inhibition at 0.2 µM under setting [2] was determined as 97%.

For the molecule `O=S(=O)(c1ccc(O)cc1)N(Cc1ccc(F)c(C(F)(F)F)c1)c1sc2ccccc2c1Br` [Compound 290, N-(3-Bromo-benzo[b]thiophen-2-yl)-N-(4-fluoro-3-trifluoromethyl-benzyl)-4-hydroxy-benzenesulfonamide], the IC50 under setting [1] worked out at 5.3 nM. Moreover, the inhibition at 0.2 µM under setting [2] was determined as 103%.

Turning to `Cc1c(N(Cc2ccc(F)c(C(F)(F)F)c2)S(=O)(=O)c2ccc(C(=O)NO)cc2)sc2ccccc12` [Compound 555, 4-([4-Fluoro-3-trifluoromethyl-benzyl)-(3-methyl-benzo[b]thiophen-2-yl)-sulfamoyl]-N-hydroxy-benzamide], under setting [1], the IC50 worked out at 21.9 nM. Further, the inhibition at 0.2 µM under setting [2] came to 102%.

On to `CS(=O)(=O)Nc1ccc(S(=O)(=O)N(CCC2CC2)c2sc3ccccc3c2Br)cc1` [Compound 717, N-(3-Bromo-benzo[b]thiophen-2-yl)-N-(2-cyclopropyl-ethyl)-4-methanesulfonylamino-benzenesulfonamide], for which the IC50 under setting [1] turned out to be 5 nM. For the same molecule, the inhibition at 0.2 µM under setting [2] turned out to be 102%.

`CCS(=O)(=O)N(CCOC)c1sc2ccccc2c1C` [Compound 105, N-(2-Methoxy-ethyl)-N-(3-methyl-benzo[b]thiophen-2-yl)-ethanesulfonamide]: the inhibition at 0.2 µM under setting [2] came to 20%.

In the case of `O=S(=O)(c1ccccc1)N(CCN1CCCCC1)c1sc2ccccc2c1Br` [Compound 256, N-(3-Bromo-benzo[b]thiophen-2-yl)-N-(2-piperidin-1-yl-ethyl)-benzenesulfonamide], under setting [1], the IC50 is 30 nM. For the same molecule, under setting [2], the inhibition at 0.2 µM amounted to 87%.

As to `O=C(O)c1ccc(S(=O)(=O)N(C[C@@H]2C[C@@H]3CC[C@H]2C3)c2sc3ccccc3c2Br)cc1` [Compound 439, RS,RS—N-(Bicyclo[2.2.1]heptan-2-ylmethyl)-N-(3-bromobenzo[b]thiophen-2-yl)-4-carboxy-benzenesulfonamide], the IC50 under setting [1] is 2 nM. Besides, the “% Inh @ 0.2 (μM)” value under setting [2] was determined as 86%.

`Cc1c(N(CCC2CC2)S(=O)(=O)c2ccc(C(=O)N[C@H]3CCNC3)cc2)sc2ccccc12` [Compound 782, (S)-4-[(2-Cyclopropyl-ethyl)-(3-methyl-benzo[b]thiophen-2-yl)-sulfamoyl]-N-pyrrolidin-3-yl-benzamide]: the inhibition at 0.2 µM under setting [2] came to 33%.

Regarding `CCS(=O)(=O)N(Cc1ccc(F)c(F)c1)c1sc2ccccc2c1CO` [Compound 219, N-(3,4-Difluoro-benzyl)-N-(3-hydroxymethyl-benzo[b]thiophen-2-yl)-ethanesulfonamide], under setting [1], the IC50 worked out at 7.8 nM. Also, the inhibition at 0.2 µM under setting [2] was determined as 101%.

As for `O=c1[nH]c(-c2ccc(S(=O)(=O)N(CCC(F)(F)F)c3sc4ccccc4c3Cl)cc2)no1` [Compound 609, N-(3-Chloro-benzo[b]thiophen-2-yl)-N-(3,3,3-trifluoro-propyl)-4-(5-oxo-4,5-dihydro-[1,2,4]oxadiazol-3-yl)-benzenesulfonamide], the IC50 under setting [1] stood at 53.7 nM. Moreover, the inhibition at 0.2 µM under setting [2] stood at 99%.

Regarding `O=S(=O)(c1ccccc1)N(Cc1ccncc1)c1cc2ccccc2s1` [Compound 54, N-(Benzo[b]thiophen-2-yl)-N-(pyridin-4-ylmethyl)-benzenesulfonamide], the inhibition at 0.5 µM under setting [3] is 65%.

On to `Cc1c(N(Cc2ccc(F)c(F)c2)S(=O)(=O)c2cccc3cccnc23)sc2ccccc12` [Compound 20, N-(3,4-Difluoro-benzyl)-N-(3-methyl-benzo[b]thiophen-2-yl)-quinoline-8-sulfonamide], for which the IC50 under setting [1] is 6 nM. Besides, the inhibition at 0.5 µM under setting [3] was 98%.

On to `O=S(=O)(c1ccccc1)N(Cc1cccc(F)c1)c1cc2ccccc2s1` [Compound 3, N-Benzo[b]thiophen-2-yl-N-(3-fluoro-benzyl)-benzenesulfonamide], for which the IC50 under setting [1] was found to be 35 nM. In addition, the inhibition at 0.5 µM under setting [3] was 98%.

With `Cc1c(N(CCC2CC2)S(=O)(=O)c2ccc(C(=O)O)cc2F)sc2ccccc12` [Compound 589, N-(3-Methyl-benzo[b]thiophen-2-yl)-N-(2-cyclopropyl-ethyl)-2-fluoro-4-carboxy-benzenesulfonamide], the IC50 under setting [1] was 4.2 nM. In addition, the inhibition at 0.2 µM under setting [2] came to 100%.

For the molecule `CCCCN(c1sc2ccccc2c1Br)S(=O)(=O)NC` [Compound 554, N-(3-Bromo-benzo[b]thiophen-2-yl)-N-(butyl)-N′-methyl-sulfamide], the inhibition at 0.2 µM under setting [2] is 52.3%.

On to `CC(C)(C)OCCCN(c1sc2ccccc2c1Br)S(=O)(=O)c1ccc(C(=O)O)cc1` [Compound 397, N-(3-Bromo-benzo[b]thiophen-2-yl)-N-(3-tert-butoxypropyl)-4-carboxy-benzenesulfonamide], for which the IC50 under setting [1] amounted to 8 nM. The inhibition at 0.2 µM under setting [2] was found to be 95%.

Turning to `Cc1c(N(Cc2ccc(F)c(C(F)(F)F)c2)S(=O)(=O)c2cnc(Cl)c(Cl)c2)sc2ccccc12` [Compound 331, N-(3-Methyl-benzo[b]thiophen-2-yl)-N-(4-fluoro-3-trifluoromethyl-benzyl)-5,6-dichloro-pyridin-3-ylsulfonamide], the IC50 under setting [1] turned out to be 90 nM. Further, under setting [2], the inhibition at 0.2 µM came to 71%.

Consider `O=S(=O)(c1cc(Br)ccc1Br)N(Cc1ccc(F)c(F)c1)c1sc2ccccc2c1CO` [Compound 834, 2,5-Dibromo-N-(3,4-difluoro-benzyl)-N-(3-hydroxymethyl-benzo[b]thiophen-2-yl)-benzenesulfonamide], for which the inhibition at 0.2 µM (0.2 μM compound, HEK293 cells stably expressing canine TRPM8, icilin activation) turned out to be 87%. In addition, the IC50 (HEK293 cells stably expressing canine TRPM8, icilin activation, average of two or more determinations) was 123 nM.

As for `CCCCN(C1=C(N(C)C)c2ccccc2S1(=O)=O)S(=O)(=O)c1ccc(C(=O)O)cc1` [Compound 536, N-(Butyl)-N-(3-dimethylamino-1,1-dioxo-1H-benzo[b]thiophen-2-yl)-4-carboxy-benzenesulfonamide], the IC50 under setting [1] stood at 77 nM. The inhibition at 0.2 µM under setting [2] came out at 89%.

As for `Cc1c(N(CCOC(C)(C)C)S(=O)(=O)c2ccccc2)sc2ccccc12` [Compound 100, N-(2-tert-Butoxy-ethyl)-N-(3-methyl-benzo[b]thiophen-2-yl)-benzenesulfonamide], the IC50 under setting [1] was determined as 6.8 nM. Besides, the inhibition at 0.2 µM under setting [2] was 103%.

Take `COC(=O)CN(c1sc2ccccc2c1C)S(=O)(=O)c1ccccc1` [Compound 101, N-(3-Methyl-benzo[b]thiophen-2-yl)-N-(carbomethoxy-methyl)-benzenesulfonamide]: under setting [1], the IC50 stood at 30.5 nM. Also, the inhibition at 0.2 µM under setting [2] is 101%.

On to `CN(C)S(=O)(=O)N(Cc1ccc(F)c(C(F)(F)F)c1)c1cc2ccccc2s1` [Compound 315, N-(Benzo[b]thiophen-2-yl)-N-(4-fluoro-3-trifluoromethyl-benzyl)-N′,N′-dimethlysulfamide], for which the IC50 under setting [1] stood at 64 nM. Further, the “% Inh @ 0.2 (μM)” value under setting [2] is on record as 99%.

Consider `Cc1c(N(CCCCC(F)(F)F)S(=O)(=O)C(F)(F)F)sc2ccccc12` [Compound 662, C,C,C-Trifluoro-N-(3-methyl-benzo[b]thiophen-2-yl)-N-(5,5,5-trifluoro-pentyl)-methanesulfonamide], for which the inhibition at 0.2 µM under setting [2] came to 50.1%.

`O=S(=O)(c1cccnc1)N(CCCC(F)(F)F)c1cc2ccccc2s1` [Compound 383, N-(Benzo[b]thiophen-2-yl)-N-(4,4,4-trifluoro-butyl)-pyridin-3-ylsulfonamide]: the inhibition at 0.2 µM under setting [2] amounted to 49%.

Regarding `CCCCN(c1cc2ccccc2s1)S(=O)(=O)c1ccc(N2CCOCC2)cc1` [Compound 446, N-Benzo[b]thiophen-2-yl-N-(butyl)-4-morpholin-4-yl-benzenesulfonamide], under setting [1], the IC50 came out at 96 nM. Further, under setting [2], the inhibition at 0.2 µM is 82%.

Regarding `CC(C)(O)c1c(N(Cc2ccc(F)c(C(F)(F)F)c2)S(=O)(=O)c2ccccc2)sc2ccccc12` [Compound 316, N-(4-Fluoro-3-trifluoromethyl-benzyl)-N-[3-(1-hydroxy-1-methyl-ethyl)-benzo[b]thiophen-2-yl]-benzenesulfonamide], under setting [1], the IC50 turned out to be 10 nM. Besides, the inhibition at 0.2 µM under setting [2] came to 101%.

For `O=S(=O)(c1cnccc1Cl)N(Cc1ccc(F)c(C(F)(F)F)c1)c1sc2ccccc2c1Cl` [Compound 338, N-(3-Chloro-benzo[b]thiophen-2-yl)-N-(4-fluoro-3-trifluoromethyl-benzyl)-4-chloro-pyridin-3-ylsulfonamide], the IC50 under setting [1] was 29 nM.

As to `CCCCN(c1sc2ccccc2c1C)S(=O)(=O)c1ccc(-c2nnn[nH]2)cc1` [Compound 539, N-(3-Methyl-benzo[b]thiophen-2-yl)-N-(butyl)-4-(1H-tetrazol-5-yl)-benzenesulfonamide], under setting [1], the IC50 is 6.7 nM. For the same molecule, the inhibition at 0.2 µM under setting [2] was determined as 105%.

Turning to `Cc1c(N(Cc2ccc(F)c(C(F)(F)F)c2)S(=O)(=O)c2nc3ccccc3[nH]2)sc2ccccc12` [Compound 728, N-(3-Methyl-benzo[b]thiophen-2-yl)-N-(4-fluoro-3-trifluoromethyl-benzyl)-1H-benzimidazole-2-sulfonamide], the inhibition at 0.2 µM under setting [2] is 44%.

The record behind these values is patent publication US9434711B2 (Janssen Pharmaceutica, NV, priority 2007, dated 2016).
